Values quoted from earlier work, collected in patent US10755801B2, “Identifying peptides having T-cell-exposed motifs with known frequency of occurrence in a reference database” (IOGENETICS, LLC, priority 2014, dated 2020).
Ends that are not written are not given here.

Test system: CD8+ responses, HLA A 0201 restricted
Details: MART-1 peptides, A*0201, melanoma patients; Kawakami

Q: For GIGILTVIL, which “CD8+ T-cell response” value is on record?
A: stimulated a response
